Legend:
Format in all cases: in vivo
Settings in all cases: 250 g/h, evaluated after 13 days
[1] = tested on: Setaria faberi (SETFA); assay: Post-emergence herbicidal glasshouse test, percentage damage
How it was run: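 Wheat, barley and Setaria faberi were sprayed post-emergence after 8 days' growth (24/16 °C, 14 h light, 65% humidity) with compound in acetone/water (50:50) containing 0.5% Tween 20, at the indicated rates. On wheat, compounds were also applied with cloquintocet-mexyl at 50 g/ha. Damage was scored after 13 days on a five-point scale (5=80-100% to 1=0-19%).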

[2] = tested on: Lolium perenne (LOLPE); assay: as above
How it was run: (§1)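 Compounds applied at 250 g/h, formulated in 50:50 acetone/water plus 0.5% Tween 20, onto potted plants one day (pre-emergence) or 8 days (post-emergence) after sowing. Scoring of damage at day 13 used a five-point scale.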

[3] = tested on: Alopecurus myosuroides (ALOMY); assay: as above
How it was run: as §1

[4] = tested on: Echinochloa crus-galli (ECHCG); assay: as above
How it was run: as §1

[5] = tested on: Avena fatua (AVEFA); assay: as above
How it was run: as §1

[6] = tested on: Lolium perenne (LOLPE); assay: Pre-emergence herbicidal glasshouse test, percentage damage
How it was run: as §1

[7] = tested on: Alopecurus myosuroides (ALOMY); assay: as above
How it was run: as §1

[8] = tested on: Setaria faberi (SETFA); assay: as above
How it was run: as §1

[9] = tested on: Echinochloa crus-galli (ECHCG); assay: as above
How it was run: as §1

[10] = tested on: Avena fatua (AVEFA); assay: as above
How it was run: as §1

`CC#Cc1cc(C)c(C2C(=O)CC3(CCN(C(=O)COCCC)CC3)CC2=O)c(C)c1` [Compound A186] was tested, and the “SETFA POST percentage damage (five point scale)” value (from here on “SETFA POST percentage damage”) [1] was 5 (5=80-100%), the “LOLPE POST percentage damage (five point scale)” value (shortened to “LOLPE POST percentage damage”) [2] was 5 (5=80-100%) and the “ALOMY POST percentage damage (five point scale)” value (“ALOMY POST percentage damage” below) [3] was 5 (5=80-100%). For the same compound, the “ECHCG POST percentage damage (five point scale)” value (from here on “ECHCG POST percentage damage”) [4] was 5 (5=80-100%), the “AVEFA POST percentage damage (five point scale)” value (shortened to “AVEFA POST percentage damage”) [5] was 5 (5=80-100%) and the “LOLPE PRE percentage damage (five point scale)” value (“LOLPE PRE percentage damage” below) [6] was 5 (5=80-100%). For the same compound, the “ALOMY PRE percentage damage (five point scale)” value (“ALOMY PRE percentage damage” for short) [7] was 5 (5=80-100%), the “SETFA PRE percentage damage (five point scale)” value (from here on “SETFA PRE percentage damage”) [8] was 5 (5=80-100%) and the “ECHCG PRE percentage damage (five point scale)” value (from here on “ECHCG PRE percentage damage”) [9] was 5 (5=80-100%). For the same compound, the “AVEFA PRE percentage damage (five point scale)” value (from here on “AVEFA PRE percentage damage”) [10] was 5 (5=80-100%).

In the case of `CC#Cc1cc(C)c(C2C(=O)CC3(CCN(C(=O)c4ccccc4)CC3)CC2=O)c(OC)c1` [Compound A73], the “SETFA POST percentage damage” value [1] is reported as 5 (5=80-100%), the “LOLPE POST percentage damage” value [2] is reported as 5 (5=80-100%) and the “ALOMY POST percentage damage” value [3] is reported as 5 (5=80-100%). The “ECHCG POST percentage damage” value [4] was 5 (5=80-100%), the “AVEFA POST percentage damage” value [5] was 5 (5=80-100%) and the “LOLPE PRE percentage damage” value [6] was 5 (5=80-100%). For the same compound, the “ALOMY PRE percentage damage” value [7] was 5 (5=80-100%), the “SETFA PRE percentage damage” value [8] was 5 (5=80-100%) and the “ECHCG PRE percentage damage” value [9] was 5 (5=80-100%). The “AVEFA PRE percentage damage” value [10] was 5 (5=80-100%).

`CC#Cc1cc(C)c(C2C(=O)CC3(CCN(C(=O)[C@H](C)O)CC3)CC2=O)c(C)c1` [Compound A155] was tested, and the “SETFA POST percentage damage” value [1] was 5 (5=80-100%), the “LOLPE POST percentage damage” value [2] was 5 (5=80-100%) and the “ALOMY POST percentage damage” value [3] was 5 (5=80-100%). The “ECHCG POST percentage damage” value [4] was 5 (5=80-100%), the “AVEFA POST percentage damage” value [5] was 5 (5=80-100%) and the “LOLPE PRE percentage damage” value [6] was 5 (5=80-100%). The “ALOMY PRE percentage damage” value [7] was 5 (5=80-100%), the “SETFA PRE percentage damage” value [8] was 5 (5=80-100%) and the “ECHCG PRE percentage damage” value [9] was 5 (5=80-100%). For the same compound, the “AVEFA PRE percentage damage” value [10] was 5 (5=80-100%).

`CC#Cc1cc(C)c(C2C(=O)CC3(CCN(C(=O)NC(=O)c4ncccc4F)CC3)CC2=O)c(C)c1` [Compound A163] was tested, and the “SETFA POST percentage damage” value [1] was 5 (5=80-100%), the “LOLPE POST percentage damage” value [2] was 5 (5=80-100%) and the “ALOMY POST percentage damage” value [3] was 5 (5=80-100%). The “ECHCG POST percentage damage” value [4] was 5 (5=80-100%), the “AVEFA POST percentage damage” value [5] was 5 (5=80-100%) and the “LOLPE PRE percentage damage” value [6] was 4 (4=60-79%). For the same compound, the “ALOMY PRE percentage damage” value [7] was 0, the “SETFA PRE percentage damage” value [8] was 5 (5=80-100%) and the “ECHCG PRE percentage damage” value [9] was 5 (5=80-100%). For the same compound, the “AVEFA PRE percentage damage” value [10] was 5 (5=80-100%).

In the case of `CC#Cc1cc(C)c(C2=C(OC(=O)c3ccccc3)CC3(CCN(C(=O)c4ccccc4)CC3)CC2=O)c(C)c1` [Compound P2], the “SETFA POST percentage damage” value [1] is reported as 5 (5=80-100%), the “LOLPE POST percentage damage” value [2] is reported as 5 (5=80-100%) and the “ALOMY POST percentage damage” value [3] is reported as 5 (5=80-100%). For the same compound, the “ECHCG POST percentage damage” value [4] was 5 (5=80-100%), the “AVEFA POST percentage damage” value [5] was 5 (5=80-100%) and the “LOLPE PRE percentage damage” value [6] was 5 (5=80-100%). The “ALOMY PRE percentage damage” value [7] was 5 (5=80-100%), the “SETFA PRE percentage damage” value [8] was 5 (5=80-100%) and the “ECHCG PRE percentage damage” value [9] was 5 (5=80-100%). For the same compound, the “AVEFA PRE percentage damage” value [10] was 5 (5=80-100%).

For `CC#Cc1cc(C)c(C2C(=O)CC3(CCN(C(=O)Cc4csc(C(F)F)n4)CC3)CC2=O)c(C)c1` [Compound A194], the “SETFA POST percentage damage” value [1] was 5 (5=80-100%), the “LOLPE POST percentage damage” value [2] was 5 (5=80-100%) and the “ALOMY POST percentage damage” value [3] was 4 (4=60-79%). The “ECHCG POST percentage damage” value [4] was 5 (5=80-100%), the “AVEFA POST percentage damage” value [5] was 5 (5=80-100%) and the “LOLPE PRE percentage damage” value [6] was 5 (5=80-100%). For the same compound, the “ALOMY PRE percentage damage” value [7] was 4 (4=60-79%), the “SETFA PRE percentage damage” value [8] was 5 (5=80-100%) and the “ECHCG PRE percentage damage” value [9] was 5 (5=80-100%). The “AVEFA PRE percentage damage” value [10] was 5 (5=80-100%).

`CC#Cc1cc(C)c(C2C(=O)CC3(CCN(C(=O)C(C)(C)O)CC3)CC2=O)c(C)c1` [Compound A146] was tested, and the “SETFA POST percentage damage” value [1] was 5 (5=80-100%), the “LOLPE POST percentage damage” value [2] was 5 (5=80-100%) and the “ALOMY POST percentage damage” value [3] was 5 (5=80-100%). The “ECHCG POST percentage damage” value [4] was 5 (5=80-100%), the “AVEFA POST percentage damage” value [5] was 5 (5=80-100%) and the “LOLPE PRE percentage damage” value [6] was 5 (5=80-100%). The “ALOMY PRE percentage damage” value [7] was 5 (5=80-100%), the “SETFA PRE percentage damage” value [8] was 5 (5=80-100%) and the “ECHCG PRE percentage damage” value [9] was 5 (5=80-100%). The “AVEFA PRE percentage damage” value [10] was 4 (4=60-79%).
